This is an account of results in the NIST ThermoML archive (doi:10.1021/acs.jced.5b00256).

± gives the expanded uncertainty stated by the source.

The conditions of series [1]: 101.33 kPa, Liquid, Pycnometric method.
Series [2] in a line: refractive index (Na D-line) (dimensionless). As to conditions: 100 kPa, Liquid, Standard Abbe refractometry.
Series [3] in a line: relative permittivity at various frequencies (dimensionless). The following applies: 100 kPa, Liquid, Frequency=2 MHz, Parallel plate capacitor.
Series [4] can be described thus: refractive index (Na D-line) (dimensionless); xn = mol fraction of the nth substance listed. The following applies: 100 kPa, Liquid, Standard Abbe refractometry, x1 = 1.
Series [5] is described as follows: relative permittivity at various frequencies (dimensionless); xn = mol fraction of the nth substance listed. As to conditions: 100 kPa, Liquid, Frequency=2 MHz, Parallel plate capacitor, x1 = 1.

In general, mass density refers to mass per unit of volume. The refractive index is the speed of light in vacuum divided by its phase velocity in the sample. On to `COc1cccc(Br)c1` [1-bromo-3-methoxybenzene], for which the mass density in series [1] (303.15 K) is listed as 1467.6 ± 6.1 kg/m3. In addition, the refractive index came to 1.56 ± 0.002 in series [2] (303.15 K), 1.558 ± 0.002 in series [2] (313.15 K), 1.553 ± 0.002 in series [2] (323.15 K) and 1.55 ± 0.002 in series [2] (333.15 K). Also, the relative permittivity in series [3] (303.15 K) is recorded as 7.01 ± 0.6; in series [3] (313.15 K), 6.85 ± 0.6; in series [3] (323.15 K) it was 6.74 ± 0.6; in series [3] (333.15 K), 6.6 ± 0.6.
Regarding `CCCO` [propan-1-ol], the mass density in series [1] (303.15 K) came to 793.9 ± 6 kg/m3; in series [1] (313.15 K) it was 791.7 ± 6 kg/m3; in series [1] (323.15 K), 784.4 ± 6 kg/m3; in series [1] (333.15 K), 775.6 ± 6 kg/m3. Moreover, the refractive index in series [2] (303.15 K) amounted to 1.383 ± 0.002; in series [2] (313.15 K), 1.38 ± 0.002; in series [2] (323.15 K), 1.376 ± 0.002; in series [2] (333.15 K), 1.371 ± 0.002. In addition, the relative permittivity in series [3] (303.15 K) worked out at 19.49 ± 0.6; in series [3] (313.15 K), 18.53 ± 0.6; in series [3] (323.15 K) it was 17.59 ± 0.6; in series [3] (333.15 K), 16.03 ± 0.6.
Regarding `CCCO` [propan-1-ol] + COc1cccc(Br)c1, the refractive index is reported as 1.383 ± 0.002 in series [4] (303.15 K), 1.38 ± 0.002 in series [4] (313.15 K), 1.376 ± 0.002 in series [4] (323.15 K) and 1.371 ± 0.002 in series [4] (333.15 K). The relative permittivity in series [5] (303.15 K) is 19.49 ± 0.6; in series [5] (313.15 K), 18.53 ± 0.6; in series [5] (323.15 K), 17.59 ± 0.6; in series [5] (333.15 K), 16.03 ± 0.6.
